Data set [1] has as its system monocyte-derived DCs. Briefly: Proteolytic activities in live DCs upon TLR ligand maturation. It counts as cell-based, human.
Data set [2] in a line: Cytosolic stability of optimal epitopes in iDC extracts. It counts as in vitro ADME. The note with it: human, iDC cytosolic extract, pH 7.4.
Data set [3] is described as follows: Cytosolic stability of optimal epitopes in iMP extracts. The data set is classed as in vitro ADME. The note with it: human, iMP cytosolic extract, pH 7.4.
[4] abbreviates: 24h post stimulation, maturing over immature cells, n=2 donors.

Ends that are not written are not given here.

`CCOCc1nc2c([nH]1)c(N)nc1ccccc12` [CL097]: in data set [1] (5h, 24h, 48h post stimulation), the “change of aminopeptidases hydrolytic activities in maturing DCs” value was “unchanged” and the “change of chymotryptic activities in maturing DCs” value is recorded as “not affected”. In data set [1] (setting [4]), the “decrease of proteasomal caspase-like activity in maturing DCs” value was 30% and the “decrease of proteasomal tryptic activity in maturing DCs” value is 30%.
`CC[C@H](C)[C@H](NC(=O)[C@@H](NC(=O)[C@H](CCC(=O)O)NC(=O)[C@@H]1CCCN1C(=O)[C@H](CO)NC(=O)[C@H](Cc1ccccc1)NC(=O)[C@H](C)NC(=O)[C@@H](N)CCCCN)C(C)C)C(=O)N1CCC[C@H]1C(=O)N[C@@H](CCSC)C(=O)N[C@@H](Cc1ccccc1)C(=O)O` [KF11]: the half-life in data set [2] turned out to be 22.1 min; in data set [3], 20.4 min.
On the same counts, the results for ISPRTLNAW [ISW9] are 7 min and 9.4 min.

The half-life is the time in which the quantity being followed falls by half.

Source of the values: publication PMC4201977 (Journal of immunology (Baltimore, Md. : 1950), 2014).
